The source of these data is ChEMBL document CHEMBL1201862, “PubChem BioAssay data set” (2004).

The structures appear in SMILES notation. Calls of active or inactive are those of the source.

Test [1] addresses Ubiquitin carboxyl-terminal hydrolase BAP1 (Homo sapiens, UniProt Q92560). In words: BAP1 deubiquitinase inhibitors, dose response, biochemical (AID 714). The class given is functional.
Test [2] addresses T1, Estrogen receptor (Homo sapiens, UniProt P03372).
T1 sequence (P03372 whole entry): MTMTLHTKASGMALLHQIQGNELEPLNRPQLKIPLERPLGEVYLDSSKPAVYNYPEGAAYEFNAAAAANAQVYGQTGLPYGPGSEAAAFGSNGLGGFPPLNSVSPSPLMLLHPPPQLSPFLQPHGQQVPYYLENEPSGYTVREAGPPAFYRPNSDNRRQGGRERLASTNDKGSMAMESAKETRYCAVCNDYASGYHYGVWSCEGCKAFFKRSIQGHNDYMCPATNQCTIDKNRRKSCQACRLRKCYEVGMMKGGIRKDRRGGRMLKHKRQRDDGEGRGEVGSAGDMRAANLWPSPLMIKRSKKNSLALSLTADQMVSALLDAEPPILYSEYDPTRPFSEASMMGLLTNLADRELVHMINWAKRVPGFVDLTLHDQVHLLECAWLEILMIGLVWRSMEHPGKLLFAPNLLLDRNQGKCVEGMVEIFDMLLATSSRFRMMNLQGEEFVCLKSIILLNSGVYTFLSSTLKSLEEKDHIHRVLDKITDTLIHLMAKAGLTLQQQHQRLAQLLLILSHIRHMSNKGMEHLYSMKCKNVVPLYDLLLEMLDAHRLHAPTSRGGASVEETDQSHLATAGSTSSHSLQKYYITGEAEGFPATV

The target of test [3] is Protein Tat (Human immunodeficiency virus type 1 group M subtype B (isolate HXB2)(HIV-1), UniProt P04608). Format: functional.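 Note: tat binding to TAR RNA read out by fluorescence polarization.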
A short description of test [4]: M. tuberculosis growth inhibition, HTS (AID 449762). The class given is functional.
Test [5] has as its target Galanin receptor type 2 (Homo sapiens, UniProt O43603). In words: Dose Response cell-based high-throughput screening assay to identify agonists of galanin receptor 2 (GALR2). [Related pubchem assays: 864 ]. Format: functional.
Test [6] has as its target Mitogen-activated protein kinase 10 (Homo sapiens, UniProt P53779). The test is described as follows: Dose response biochemical screening assay for inhibitors of c-Jun N-Terminal Kinase 3 (JNK3). [Related pubchem assays: 746 ].
In test [7] the target is DNA dC->dU-editing enzyme APOBEC-3A (Homo sapiens, UniProt P31941). In words: Dose Response confirmation of small molecule APOBEC3A DNA Deaminase Inhibitors via a fluorescence-based single-stranded DNA deaminase assay. [Related pubchem assays (depositor defined):AID493011, AID493024]. The class given is functional.
Test [8] deals with DNA dC->dU-editing enzyme APOBEC-3G (Homo sapiens, UniProt Q9HC16). The class given is functional.
Test [9] deals with Diphosphomevalonate decarboxylase (Streptococcus pneumoniae serotype 2 (strain D39 / NCTC 7466), UniProt Q9FD53). In words: S. pneumoniae DPM-DC inhibition retest, confirmation, biochemical, cuvette format, coupled NADH fluorescence (AID 1028). The class given is functional.
Test [10] deals with Tyrosine-protein phosphatase non-receptor type 11 (Homo sapiens, UniProt Q06124). In words: SHP2 phosphatase inhibition, dose response, selectivity assay for STEP inhibitor project, biochemical (AID 602367). Format: functional. As to conditions: read-out: IC50_Mean.
In test [11] the target is Tyrosine-protein phosphatase non-receptor type 5 (Homo sapiens, UniProt P54829). The test is described as follows: STEP phosphatase inhibitors, confirmation, biochemical, fluorescence intensity, uHTS hits (AID 602372). Format: functional. To be noted: read-out: IC50_Mean.
The target of test [12] is Photoreceptor-specific nuclear receptor (Homo sapiens, UniProt Q9Y5X4). In words: NR2E3 inverse agonists, dose response, biochemical, TR-FRET (AID 463256). Format: functional. In general terms: TR-FRET usually uses a lanthanide donor and a delayed reading to cut background.
For test [13], the target named is Peroxisome proliferator-activated receptor gamma/Nuclear receptor corepressor 2 (Homo sapiens, UniProt P37231+Q9Y618). In words: Counterscreen for NR2E3 inverse agonists: TR-FRET-based biochemical high throughput dose response assay to identify inverse agonists of the interaction between peroxisome proliferator-activated receptor gamma (PPARg) and nuclear receptor co-repressor 2 (NCOR2). The class given is functional. Background: The purpose of a counterscreen is to sort out artefacts and off-target activity.

For test [14], the target named is Dual specificity protein phosphatase 3 (Homo sapiens, UniProt P51452). The test is described as follows: VHR phosphatase inhibition, dose response, selectivity assay for STEP inhibitor project, biochemical (AID 602374). Format: functional. To be noted: read-out: IC50_Mean.
The target in test [15] is Tyrosine-protein phosphatase non-receptor type 22 (Homo sapiens, UniProt Q9Y2R2). The test is described as follows: PTPN22 phosphatase inhibition, dose response, selectivity assay for STEP inhibitor project, biochemical (AID 624241). The class given is functional.
Test [16] is described as follows: cells. The class given is functional, cell-based. To be noted: INS-1E.
Test [17] in a line: Dose-response inhibition of insulin secretion in a rat insulinoma line at 5 mM glucose (AID 1117331). As to conditions: INS-1E. Format: functional, cell-based.

Mitogen-activated protein kinase 10, sequence (P53779 whole entry): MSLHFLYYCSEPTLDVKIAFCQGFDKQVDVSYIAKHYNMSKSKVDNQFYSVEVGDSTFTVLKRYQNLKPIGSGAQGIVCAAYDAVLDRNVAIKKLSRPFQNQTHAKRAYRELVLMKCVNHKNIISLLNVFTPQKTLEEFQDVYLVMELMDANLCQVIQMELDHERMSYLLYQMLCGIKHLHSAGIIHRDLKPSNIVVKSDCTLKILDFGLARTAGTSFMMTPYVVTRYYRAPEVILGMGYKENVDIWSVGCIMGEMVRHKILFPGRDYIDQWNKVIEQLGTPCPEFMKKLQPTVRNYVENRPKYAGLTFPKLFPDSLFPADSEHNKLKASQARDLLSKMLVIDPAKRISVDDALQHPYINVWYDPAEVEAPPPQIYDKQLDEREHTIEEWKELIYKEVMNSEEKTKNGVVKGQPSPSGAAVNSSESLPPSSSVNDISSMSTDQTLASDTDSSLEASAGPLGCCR
DNA dC->dU-editing enzyme APOBEC-3A, sequence (P31941 whole entry): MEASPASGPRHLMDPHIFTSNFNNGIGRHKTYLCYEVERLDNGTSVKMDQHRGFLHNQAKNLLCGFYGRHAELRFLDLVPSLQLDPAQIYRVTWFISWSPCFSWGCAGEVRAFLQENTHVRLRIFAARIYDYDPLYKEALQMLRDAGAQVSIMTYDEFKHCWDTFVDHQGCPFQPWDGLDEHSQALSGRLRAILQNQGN
Photoreceptor-specific nuclear receptor, sequence (Q9Y5X4 whole entry): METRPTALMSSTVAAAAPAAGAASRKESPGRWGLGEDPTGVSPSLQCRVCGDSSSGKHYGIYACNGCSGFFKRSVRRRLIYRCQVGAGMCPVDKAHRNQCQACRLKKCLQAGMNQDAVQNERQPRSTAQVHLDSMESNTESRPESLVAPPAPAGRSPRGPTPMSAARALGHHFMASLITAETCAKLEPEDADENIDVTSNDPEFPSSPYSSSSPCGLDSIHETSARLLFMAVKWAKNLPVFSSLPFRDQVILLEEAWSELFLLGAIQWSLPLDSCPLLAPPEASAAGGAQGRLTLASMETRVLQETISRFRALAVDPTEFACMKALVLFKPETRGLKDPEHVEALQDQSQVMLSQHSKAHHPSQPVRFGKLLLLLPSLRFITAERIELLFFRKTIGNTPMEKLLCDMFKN
Protein Tat, sequence (P04608 whole entry): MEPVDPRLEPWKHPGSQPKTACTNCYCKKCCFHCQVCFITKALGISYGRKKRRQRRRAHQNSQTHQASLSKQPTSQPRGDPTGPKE
Dual specificity protein phosphatase 3, sequence (P51452 whole entry): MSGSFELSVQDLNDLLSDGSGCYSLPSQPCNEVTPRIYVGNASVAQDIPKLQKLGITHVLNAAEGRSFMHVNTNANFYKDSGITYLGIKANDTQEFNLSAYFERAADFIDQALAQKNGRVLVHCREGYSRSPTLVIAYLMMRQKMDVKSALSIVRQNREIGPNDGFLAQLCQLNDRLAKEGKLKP
Peroxisome proliferator-activated receptor gamma/Nuclear receptor corepressor 2, sequence (P37231 whole entry): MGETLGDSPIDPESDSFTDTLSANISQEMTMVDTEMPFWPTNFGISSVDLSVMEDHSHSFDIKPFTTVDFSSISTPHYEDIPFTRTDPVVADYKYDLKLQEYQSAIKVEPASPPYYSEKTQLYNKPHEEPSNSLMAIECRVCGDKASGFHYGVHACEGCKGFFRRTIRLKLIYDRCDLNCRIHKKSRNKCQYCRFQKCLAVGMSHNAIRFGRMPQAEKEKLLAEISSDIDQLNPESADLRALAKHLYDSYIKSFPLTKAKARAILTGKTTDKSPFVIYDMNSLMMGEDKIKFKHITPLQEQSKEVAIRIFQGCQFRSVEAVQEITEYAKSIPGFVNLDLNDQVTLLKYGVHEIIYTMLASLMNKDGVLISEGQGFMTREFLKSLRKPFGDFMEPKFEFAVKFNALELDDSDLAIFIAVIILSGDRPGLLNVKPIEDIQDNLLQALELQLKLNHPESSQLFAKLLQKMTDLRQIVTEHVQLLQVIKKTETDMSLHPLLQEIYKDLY
Peroxisome proliferator-activated receptor gamma/Nuclear receptor corepressor 2, sequence (Q9Y618 whole entry): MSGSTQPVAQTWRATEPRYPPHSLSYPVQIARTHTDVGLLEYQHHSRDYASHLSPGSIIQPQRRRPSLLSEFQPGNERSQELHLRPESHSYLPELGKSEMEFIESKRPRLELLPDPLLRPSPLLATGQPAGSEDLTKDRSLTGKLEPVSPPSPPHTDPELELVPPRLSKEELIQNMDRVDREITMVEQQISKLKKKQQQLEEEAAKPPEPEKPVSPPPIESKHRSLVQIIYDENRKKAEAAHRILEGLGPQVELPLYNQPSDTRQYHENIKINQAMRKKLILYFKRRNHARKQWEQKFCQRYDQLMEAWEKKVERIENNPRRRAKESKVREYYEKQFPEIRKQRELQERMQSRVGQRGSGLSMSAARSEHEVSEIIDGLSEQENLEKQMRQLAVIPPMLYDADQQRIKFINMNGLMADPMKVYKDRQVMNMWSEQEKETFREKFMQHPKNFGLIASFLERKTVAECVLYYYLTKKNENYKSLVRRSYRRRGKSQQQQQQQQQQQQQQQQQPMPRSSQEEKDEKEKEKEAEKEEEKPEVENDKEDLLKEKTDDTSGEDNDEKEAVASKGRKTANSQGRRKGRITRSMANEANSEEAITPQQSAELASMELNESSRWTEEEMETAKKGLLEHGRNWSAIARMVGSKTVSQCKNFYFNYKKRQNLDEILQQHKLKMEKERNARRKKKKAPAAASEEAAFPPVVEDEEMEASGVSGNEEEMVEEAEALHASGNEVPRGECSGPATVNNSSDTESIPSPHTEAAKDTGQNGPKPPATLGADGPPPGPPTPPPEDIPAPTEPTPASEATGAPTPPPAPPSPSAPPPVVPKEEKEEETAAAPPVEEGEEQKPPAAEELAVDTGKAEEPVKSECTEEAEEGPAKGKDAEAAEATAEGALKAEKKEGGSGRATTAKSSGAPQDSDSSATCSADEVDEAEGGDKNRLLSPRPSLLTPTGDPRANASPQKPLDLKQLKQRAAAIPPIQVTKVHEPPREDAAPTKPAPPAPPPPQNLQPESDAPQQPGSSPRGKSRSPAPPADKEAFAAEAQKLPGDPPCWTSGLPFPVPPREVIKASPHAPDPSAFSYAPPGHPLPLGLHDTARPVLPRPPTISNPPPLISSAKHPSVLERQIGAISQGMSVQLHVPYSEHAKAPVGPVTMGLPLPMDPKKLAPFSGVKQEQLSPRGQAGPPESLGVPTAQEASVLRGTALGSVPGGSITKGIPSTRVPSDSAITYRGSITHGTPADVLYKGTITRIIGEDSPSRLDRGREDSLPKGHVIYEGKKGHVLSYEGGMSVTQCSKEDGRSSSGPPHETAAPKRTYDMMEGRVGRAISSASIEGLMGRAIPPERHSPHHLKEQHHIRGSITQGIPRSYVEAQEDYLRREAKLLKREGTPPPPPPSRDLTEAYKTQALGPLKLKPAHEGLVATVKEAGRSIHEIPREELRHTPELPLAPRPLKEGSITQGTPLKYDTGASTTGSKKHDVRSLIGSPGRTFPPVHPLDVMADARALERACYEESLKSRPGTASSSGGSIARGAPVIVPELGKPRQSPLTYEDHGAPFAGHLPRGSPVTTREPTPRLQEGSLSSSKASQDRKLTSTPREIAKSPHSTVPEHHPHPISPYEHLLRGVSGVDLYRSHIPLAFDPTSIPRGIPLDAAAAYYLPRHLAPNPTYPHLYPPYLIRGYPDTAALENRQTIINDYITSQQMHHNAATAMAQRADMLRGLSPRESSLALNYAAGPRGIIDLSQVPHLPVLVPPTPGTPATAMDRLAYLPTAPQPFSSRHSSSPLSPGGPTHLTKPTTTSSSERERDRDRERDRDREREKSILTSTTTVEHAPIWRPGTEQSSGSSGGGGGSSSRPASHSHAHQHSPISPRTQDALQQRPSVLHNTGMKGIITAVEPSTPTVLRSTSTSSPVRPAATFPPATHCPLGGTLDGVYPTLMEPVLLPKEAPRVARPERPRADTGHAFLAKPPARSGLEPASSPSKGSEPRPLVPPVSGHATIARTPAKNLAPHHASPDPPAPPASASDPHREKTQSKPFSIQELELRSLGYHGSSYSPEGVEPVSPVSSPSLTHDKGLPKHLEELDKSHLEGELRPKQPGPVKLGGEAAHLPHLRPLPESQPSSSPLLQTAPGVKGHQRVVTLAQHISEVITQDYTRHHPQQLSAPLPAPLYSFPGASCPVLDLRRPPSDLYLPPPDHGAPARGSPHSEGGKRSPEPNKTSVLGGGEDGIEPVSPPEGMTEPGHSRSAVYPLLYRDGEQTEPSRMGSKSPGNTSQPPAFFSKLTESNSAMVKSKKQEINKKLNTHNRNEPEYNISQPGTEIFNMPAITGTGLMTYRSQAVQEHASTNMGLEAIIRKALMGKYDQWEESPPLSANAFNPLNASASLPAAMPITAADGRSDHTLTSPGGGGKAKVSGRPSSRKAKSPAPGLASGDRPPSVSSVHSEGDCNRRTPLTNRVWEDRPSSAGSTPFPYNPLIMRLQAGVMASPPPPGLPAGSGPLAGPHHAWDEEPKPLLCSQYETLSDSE
Diphosphomevalonate decarboxylase, sequence (Q9FD53 whole entry): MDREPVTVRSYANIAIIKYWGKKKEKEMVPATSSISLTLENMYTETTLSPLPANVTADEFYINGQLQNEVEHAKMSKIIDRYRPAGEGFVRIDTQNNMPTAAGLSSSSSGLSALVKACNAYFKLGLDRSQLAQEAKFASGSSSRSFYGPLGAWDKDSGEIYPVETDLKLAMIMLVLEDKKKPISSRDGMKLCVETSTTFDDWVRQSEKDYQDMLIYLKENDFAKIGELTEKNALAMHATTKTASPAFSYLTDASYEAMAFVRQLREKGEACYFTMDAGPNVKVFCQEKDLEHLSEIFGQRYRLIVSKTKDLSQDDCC

Regarding `Cc1sc(NC(=O)CSc2nnc(-c3ccc(F)cc3)o2)c(C#N)c1C`, the IC50 in [1] is 10.5 µM (active); in test [2] it was > 50 µM (not active).

As to `CCc1ccccc1N(CC(=O)NCCSCc1ccco1)S(C)(=O)=O`, the IC50 in [3] was > 100 µM (active).

As for `Cc1cc(/C=C(/C#N)c2cccc(F)c2)c(C)n1-c1cccnc1`, in test [4], the IC50 is > 100 µM (active).

`C=CCNC(=O)/C(C#N)=C/c1cn(-c2ccccc2)nc1-c1cccs1`: the EC50 (commonly the midpoint of the concentration-response curve) in test [5] is recorded as 45.4 µM (not active).

In the case of `CC1(C)Oc2ccc3ccc(=O)oc3c2-c2c[nH]nc21`, the IC50 in test [6] is > 31 µM (not active); in [7], 4.45 µM (active); in test [8], 5.7 µM (active).

`O=C(NCc1ccco1)c1cccc(-n2sc3ccccc3c2=O)c1`: the IC50 in test [9] is 10.5 µM (active).

In the case of `COc1ccc(-c2ccc(NC(=O)c3ccc(Br)o3)cc2)nn1`, the IC50 in [10] was 4.3 µM (active); in [11], 18 µM (active); in test [12] it was 3.38 µM (active); in test [13], 4.7 µM (active); in test [14], 6.6 µM (active); in test [15], 74.1 µM (inactive).

`c1cc(CN2CCCCC2)cc(OCCCNc2nc3ccccc3s2)c1`: the IC50 in test [16] was > 33.3 µM (inactive); in test [17] it was > 11.1 µM (inactive).
